Test results as given in ChEMBL document CHEMBL2380283, “Design and synthesis of thiophene dihydroisoquinolines as novel BACE1 inhibitors” (Bioorg Med Chem Lett, 2013).

Assays:
Beta-secretase 1 [1] = biological target: T1, Beta-secretase 1 (Homo sapiens, UniProt P56817); test: Inhibition of BACE1 (unknown origin) by Alpha screen assay
[2] = Apparent permeability across apical to basolateral side in MDCK cells expressing MDR1 at 5 uM after 120 mins by LC/MS/MS analysis; format: ADME, cell-based, Canis lupus familiaris; conditions: dog
Cathepsin D = Cathepsin D (Homo sapiens, UniProt P07339); test: Inhibition of cathepsin-D (unknown origin) after 110 mins by fluorescence polarization assay
Beta-secretase 1 [3] = biological target: T1, Beta-secretase 1; test: Inhibition of recombinant BACE1 (unknown origin) expressed in Escherichia coli using biotinylated APP swidesh mutant as substrate incubated for 20 mins prior to substrate addition measured after 3 hrs by fluorescence polarization assay

T1 sequence (P56817 whole entry): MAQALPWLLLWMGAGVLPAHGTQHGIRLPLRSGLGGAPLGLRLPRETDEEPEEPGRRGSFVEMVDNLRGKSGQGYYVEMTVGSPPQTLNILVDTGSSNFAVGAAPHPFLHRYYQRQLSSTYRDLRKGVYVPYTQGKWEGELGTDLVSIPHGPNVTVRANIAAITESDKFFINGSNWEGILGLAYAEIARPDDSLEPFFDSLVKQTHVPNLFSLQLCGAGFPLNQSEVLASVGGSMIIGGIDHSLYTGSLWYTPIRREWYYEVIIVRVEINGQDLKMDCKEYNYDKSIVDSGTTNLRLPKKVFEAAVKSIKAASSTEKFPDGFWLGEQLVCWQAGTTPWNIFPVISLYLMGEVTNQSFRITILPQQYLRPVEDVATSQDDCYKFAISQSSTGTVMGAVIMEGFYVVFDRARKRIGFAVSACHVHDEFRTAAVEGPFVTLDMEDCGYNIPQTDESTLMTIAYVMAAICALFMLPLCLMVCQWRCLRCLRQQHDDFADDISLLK
Cathepsin D, sequence (P07339 65-162 limits assumed): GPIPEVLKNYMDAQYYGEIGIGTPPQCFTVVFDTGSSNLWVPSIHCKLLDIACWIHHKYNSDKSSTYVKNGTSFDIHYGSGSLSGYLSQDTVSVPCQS
Cathepsin D, sequence (P07339 169-412 limits assumed): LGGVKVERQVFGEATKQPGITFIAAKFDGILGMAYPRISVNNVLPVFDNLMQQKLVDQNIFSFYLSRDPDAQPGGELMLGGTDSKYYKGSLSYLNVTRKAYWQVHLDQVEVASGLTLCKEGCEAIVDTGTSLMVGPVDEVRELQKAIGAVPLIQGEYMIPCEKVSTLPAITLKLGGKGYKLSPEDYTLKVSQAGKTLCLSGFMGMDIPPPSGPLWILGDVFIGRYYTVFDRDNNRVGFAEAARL

| IC50 (Beta-secretase 1 [1]) [nM] | SMILES | also measured |
| --- | --- | --- |
| 310 | CC1(C)Cc2cc(Cl)ccc2C(NC(Cc2cscc2Br)C(=O)O)=N1 (stereo not drawn) |  |
| 2430 | CC1(C)Cc2cc(Cl)ccc2C(NC(Cc2cscc2C2CC2)C(=O)O)=N1 (stereo not drawn) |  |
| 406 | CCCc1scc(-c2cn[nH]c2)c1CC(NC1=NC(C)(C)Cc2cc(Cl)ccc21)c1nccc(=O)[nH]1 (stereo not drawn) | Papp A→B at 2 h, 5 µM [2]: 10 ×10⁻⁶ cm/s; IC50 (Cathepsin D): > 30000 nM; IC50 (Beta-secretase 1 [3]): 40000 nM |
| 570 | CC1(C)Cc2cc(Cl)ccc2C(NC(Cc2cscc2CCC2CC2)C(=O)O)=N1 (stereo not drawn) |  |
| 2900 | CC1(C)Cc2cc(Cl)ccc2C(NC(Cc2ccsc2)C(=O)O)=N1 (stereo not drawn) |  |
| 610 | CCCc1cscc1CC(NC1=NC(C)(C)Cc2cc(Cl)ccc21)C(=O)O (stereo not drawn) |  |
| 630 | CCc1cscc1CC(NC1=NC(C)(C)Cc2cc(Cl)ccc21)C(=O)O (stereo not drawn) |  |
| 710 | CC1(C)Cc2cc(Cl)ccc2C(NC(Cc2sccc2Br)C(=O)O)=N1 (stereo not drawn) |  |
| 1090 | Cn1cc(-c2cscc2CC(NC2=NC(C)(C)Cc3cc(Cl)ccc32)C(=O)O)cn1 (stereo not drawn) |  |
| 450 | CC1(C)Cc2cc(Cl)ccc2C(NC(Cc2cscc2-c2cn[nH]c2)C(=O)O)=N1 (stereo not drawn) |  |
| 8 | CCCc1scc(-c2cn[nH]c2)c1CC(NC1=NC(C)(C)Cc2cc(Cl)ccc21)C(=O)O (stereo not drawn) | IC50 (Cathepsin D): > 30000 nM; IC50 (Beta-secretase 1 [3]): 400 nM |
| 820 | CC1(C)Cc2cc(Cl)ccc2C(NC(Cc2cscc2-c2ncco2)C(=O)O)=N1 (stereo not drawn) |  |
| 510 | CC#Cc1cscc1CC(NC1=NC(C)(C)Cc2cc(Cl)ccc21)C(=O)O (stereo not drawn) |  |
| 1850 | CC1(C)Cc2cc(Cl)ccc2C(NC(Cc2cscc2-c2ccncc2)C(=O)O)=N1 (stereo not drawn) |  |
| 760 | C#Cc1cscc1CC(NC1=NC(C)(C)Cc2cc(Cl)ccc21)C(=O)O (stereo not drawn) |  |
| 264000 | CC1(C)Cc2cc(Cl)ccc2C(N[C@H](Cc2ccccc2)C(=O)O)=N1 |  |
| 9500 | CC1(C)Cc2cc(Cl)ccc2C(NC(Cc2ccsc2Br)C(=O)O)=N1 (stereo not drawn) |  |
| 1260 | CC1(C)Cc2cc(Cl)ccc2C(NC(Cc2cscc2-c2cc[nH]n2)C(=O)O)=N1 (stereo not drawn) |  |
